Test results reported in paper PMC6070535, “Identification, Characterization, and X-ray Crystallographic Analysis of a Novel Type of Lectin AJLec from the Sea Anemone Anthopleura japonica” (Scientific Reports, 2018).
≈ marks a conversion by molar mass, not a printed value.

Key:
AJLec = biological target: T1, AJLec (Anthopleura japonica, UniProt A0A2Z5WLM1); experiment: hemagglutination inhibition, rabbit erythrocytes; format: cell-based; details: 2.4–2.6 μg/mL AJLec, TBS-Ca2+
T1 construct: mature 164 residues, 18,491 Da, precursor 186 residues; N-terminal pyroglutamate; disulfide-linked homodimer (36 kDa); Ca2+ dependent
T1 sequence (A0A2Z5WLM1 23-186): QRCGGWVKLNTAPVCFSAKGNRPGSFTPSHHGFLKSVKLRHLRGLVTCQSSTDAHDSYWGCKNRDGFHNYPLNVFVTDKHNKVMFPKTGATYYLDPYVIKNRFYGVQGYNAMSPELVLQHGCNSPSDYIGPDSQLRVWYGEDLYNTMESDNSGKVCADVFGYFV
Description: hemagglutination inhibition, rabbit erythrocytes on AJLec

[1] = biological target: AJLec (Anthopleura japonica Lectin) (Anthopleura japonica); experiment: crystal structure; AJLec with 100 mM lactose and 1 mM CaCl2 in TBS; vapor diffusion, 200 mM NaCl, 100 mM HEPES pH 7.5, 30% PEG 3350, 20 °C; two chains per asymmetric unit

| Compound | Minimum inhibitory concentration (AJLec) | stoichiometry N [1] |
| --- | --- | --- |
| OC[C@H]1OC(O)[C@H](O)[C@@H](O)[C@@H]1O (stereo partly drawn) [D-Glucose] | > 25000 µM |  |
| OC[C@H]1OC(O)[C@@H](O)[C@@H](O)[C@@H]1O (stereo partly drawn) [D-Mannose] | > 25000 µM |  |
| OC[C@H]1OC(O)[C@H](O)[C@@H](O)[C@H]1O (some centres unmarked) [Galactose] | 50 µM (≈ 9.01 µg/mL) |  |
| C[C@@H]1OC(O)[C@@H](O)[C@H](O)[C@@H]1O (stereo partly drawn) [L-Fucose] | 3000 µM (≈ 492 µg/mL) |  |
| C[C@@H]1OC(O)[C@H](O)[C@H](O)[C@H]1O (stereo partly drawn) [L-Rhamnose] | 3000 µM (≈ 492 µg/mL) |  |
| OC[C@H]1O[C@@H](O[C@H]2[C@H](O)[C@@H](O)C(O)O[C@@H]2CO)[C@H](O)[C@@H](O)[C@H]1O (some centres unmarked) [Lactose] | 100 µM (≈ 34.2 µg/mL) |  |
| AJLec (Anthopleura japonica Lectin) (natural protein) |  | 2 |

The next lines start with the values.

| Minimum inhibitory concentration (AJLec) | stoichiometry N [1] | Compound |
| --- | --- | --- |
| 100 µM (≈ 34.2 µg/mL) |  | OC[C@H]1O[C@@H](O[C@@H]2[C@@H](CO)OC(O)(CO)[C@H]2O)[C@H](O)[C@@H](O)[C@H]1O (some centres unmarked) [Lactulose] |
| 6300 µM (≈ 2160 µg/mL) |  | OC[C@H]1O[C@H](O[C@H]2[C@H](O)[C@@H](O)C(O)O[C@@H]2CO)[C@H](O)[C@@H](O)[C@@H]1O (some centres unmarked) [Maltose] |
| 800 µM (≈ 155 µg/mL) |  | CO[C@H]1O[C@H](CO)[C@H](O)[C@H](O)[C@H]1O [Me-α-Gal] |
| > 25000 µM |  | CO[C@H]1O[C@H](CO)[C@@H](O)[C@H](O)[C@H]1O [Me-α-Glc] |
| > 25000 µM |  | CO[C@H]1O[C@H](CO)[C@@H](O)[C@H](O)[C@@H]1O [Me-α-Man] |
| 400 µM (≈ 77.7 µg/mL) |  | CO[C@@H]1O[C@H](CO)[C@H](O)[C@H](O)[C@H]1O [Me-β-Gal] |
| 800 µM (≈ 274 µg/mL) |  | OC[C@H]1O[C@H](OC[C@H]2OC(O)[C@H](O)[C@@H](O)[C@@H]2O)[C@H](O)[C@@H](O)[C@H]1O (some centres unmarked) [Melibiose] |
| 25000 µM (≈ 5530 µg/mL) |  | CC(=O)N[C@H]1C(O)O[C@H](CO)[C@H](O)[C@@H]1O (some centres unmarked) [N-Acetylgalactosamine] |
| 3100 µM (≈ 1060 µg/mL) |  | OC[C@H]1O[C@H](OC[C@H]2OC(O)(CO)[C@@H](O)[C@@H]2O)[C@H](O)[C@@H](O)[C@@H]1O (some centres unmarked) [Palatinose] |
| 800 µM (≈ 404 µg/mL) |  | OC[C@H]1O[C@H](OC[C@H]2O[C@H](O[C@]3(CO)O[C@H](CO)[C@@H](O)[C@@H]3O)[C@H](O)[C@@H](O)[C@@H]2O)[C@H](O)[C@@H](O)[C@H]1O [Raffinose] |
